The source of these data is patent publication US10206937B2, “Boronic acid derivatives and therapeutic uses thereof” (Qpex Biopharma, Inc., priority 2014, dated 2019).

The target of data set [1] is T1, NDM-1 (Klebsiella pneumoniae, UniProt C7C422). The data set is described as follows: biochemical. The settings on record: cleavage of imipenem (100 uM) by NDM-1; read-out: Ki, Imipenem.
Data set [2] has as its target T2, purified class A, C and D enzymes (UniProt P0AD64, L31Q/G234S/E235K, species not given).
T2 construct: Ki (SHV-12, NCF); other: purified SHV-12; nitrocefin reporter substrate
T2 sequence (P0AD64 1-286 L31Q/G234S/E235K): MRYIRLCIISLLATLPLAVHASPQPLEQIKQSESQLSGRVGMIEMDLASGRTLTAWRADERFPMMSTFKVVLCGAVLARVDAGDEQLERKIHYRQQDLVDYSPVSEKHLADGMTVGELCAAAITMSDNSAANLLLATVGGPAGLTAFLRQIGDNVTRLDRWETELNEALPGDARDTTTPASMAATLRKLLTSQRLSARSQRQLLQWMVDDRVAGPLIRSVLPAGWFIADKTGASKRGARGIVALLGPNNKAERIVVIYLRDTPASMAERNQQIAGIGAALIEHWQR
It is filed as biochemical. Conditions: read-out: Ki (SHV-12, NCF); purified SHV-12; nitrocefin reporter substrate.

The target of data set [3] is T3, purified class A, C and D enzymes (UniProt Q48434).
T3 construct: rows headed: Ki (CMY-2, NCF); other: purified CMY-2; nitrocefin reporter substrate
It is filed as biochemical. Conditions: read-out: Ki (CMY-2, NCF); purified CMY-2; nitrocefin reporter substrate.

The target in data set [4] is T4, purified class A, C and D enzymes (UniProt Q6XEC0).
T4 construct: rows headed: Ki (OXA-48, NCF); other: purified OXA-48; nitrocefin reporter substrate
It is filed as biochemical. The settings on record: read-out: Ki (OXA-48, NCF); purified OXA-48; nitrocefin reporter substrate.

Another data set addresses T5, VIM-1 (Pseudomonas aeruginosa, UniProt A0A0F7KYQ8).
T5 construct: made in house; host or cells: ECM6711 strain carrying pUCP24-VIM-1 plasmid; culture supernatant used unpurified
The data set is described as follows: biochemical. The settings on record: cleavage of nitrocefin (200 uM) by VIM-1 supernatant.

The target in data set [5] is T1, NDM-1. The data set is described as follows: Inhibition of purified class B carbapenemase NDM-1 (Ki, imipenem substrate). Conditions: NDM-1, substrate imipenem; read-out: Ki NDM-1, Imipenem. It is filed as biochemical.
The next data set concerns the target OXA-48 (Klebsiella pneumoniae, UniProt Q6XEC0). Description: Inhibition of purified class D carbapenemase OXA-48 (Ki, carbapenem substrates). It is filed as biochemical. Conditions: purified OXA-48, substrate biapenem; read-out: Ki OXA-48, Biapenem.
Data set [6] has as its target T6, purified class A, C and D enzymes (UniProt Q9F663).
T6 construct: rows headed: Ki (KPC-2, NCF); other: purified KPC-2; nitrocefin reporter substrate
It is filed as biochemical. Conditions: read-out: Ki (KPC-2, NCF); purified KPC-2; nitrocefin reporter substrate.

Data set [7] deals with purified class A, C and D enzymes (Escherichia coli, UniProt Q9L5C7). It is filed as biochemical.
Data set [8] is described as follows: Serum stability of prodrugs: hydrolysis by rat serum. The settings on record: rat serum, prodrug; for Measured Initial Conc. in Serum: 37 degrees, sampled immediately. It is filed as in vitro ADME. How it is done:
(§1) Prodrug strategy is one of the ways to achieve or increase oral bioavailability for therapeutic drugs. Compound 62 was used as a template for various ester prodrugs. After a prodrug molecule is absorbed into systemic circulation, it should be hydrolyzed in the blood in order to release the active form. Hydrolysis of several prodrugs by rat and human serum were evaluated.
(§2) For all stability experiments the test compounds were treated with rat or human serum in Eppendorf tubes. Typically, 980 μl of serum was prewarmed at 37 degrees for 2 minutes and then 20 μl of a compound (at 1 mg/ml, 50×) was added to it to get a final concentration of 20 μg/ml and immediately mixed. Duplicate samples were tested. […] After vortexing for 30 seconds, the tube was centrifuged in a microcentrifuge for 10 minutes at 15K rpm. Next, 100 μl of the supernatant was combined with 600 μl of water and injected on LC-MS using 0.1% formic acid in water for mobile phase A and 0.1% formic acid in methanol for mobile phase B on an ACE 5 C18 2.1×100 mm column with a 10 μL it injection. The flow rate and gradient were adjusted as needed to give the desired resolution and run time. The pH of the mobile phase was adjusted if needed to improve the chromatography.
(§3) The time course of both the disappearance of a prodrug and the appearance of the active form of that prodrug is presented in Table 13 and Table 14. The active metabolites for all of the listed prodrugs are corresponding parent drugs

Data set [9] in a line: Serum stability of prodrugs: hydrolysis by human serum. It is filed as in vitro ADME. The settings on record: prodrug; for Measured Initial Conc. in Serum: 37 degrees, sampled immediately. How it is done:
as §1, §2, §3

Molecules are shown by their SMILES.

T1 sequence (C7C422 29-270, looked up, species assumed): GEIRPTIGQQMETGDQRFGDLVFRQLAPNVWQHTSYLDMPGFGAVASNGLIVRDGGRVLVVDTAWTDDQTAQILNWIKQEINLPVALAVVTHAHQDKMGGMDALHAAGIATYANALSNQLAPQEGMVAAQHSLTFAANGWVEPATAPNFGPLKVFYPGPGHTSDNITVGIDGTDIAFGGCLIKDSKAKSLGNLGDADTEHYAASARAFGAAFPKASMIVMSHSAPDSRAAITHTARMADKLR
purified class A, C and D enzymes (Escherichia coli, UniProt Q9L5C7), sequence (Q9L5C7 entry or part of it): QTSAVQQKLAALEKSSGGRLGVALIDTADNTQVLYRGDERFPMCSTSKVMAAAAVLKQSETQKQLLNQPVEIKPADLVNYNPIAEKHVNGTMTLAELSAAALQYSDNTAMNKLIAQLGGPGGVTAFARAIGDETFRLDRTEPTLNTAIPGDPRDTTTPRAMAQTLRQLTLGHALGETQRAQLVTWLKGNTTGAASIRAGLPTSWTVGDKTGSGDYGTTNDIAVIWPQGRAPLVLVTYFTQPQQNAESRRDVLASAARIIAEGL
OXA-48, sequence (Q6XEC0 23-265, looked up): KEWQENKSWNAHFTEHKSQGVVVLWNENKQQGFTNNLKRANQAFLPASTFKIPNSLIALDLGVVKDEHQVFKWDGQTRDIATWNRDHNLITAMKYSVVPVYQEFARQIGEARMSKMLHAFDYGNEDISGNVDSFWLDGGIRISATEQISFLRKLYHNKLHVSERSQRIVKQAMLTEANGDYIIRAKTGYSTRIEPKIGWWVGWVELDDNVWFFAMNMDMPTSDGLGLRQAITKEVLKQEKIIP

As to `CC(=O)Nc1nnc(S[C@H]2Cc3cccc(C(=O)O)c3OB2O)s1` [Compound 7, (R)-3-(5-acetamido-1,3,4-thiadiazol-2-ylthio)-2-hydroxy-3,4-dihydro-2H-benzo[e][1,2]oxaborinine-8-carboxylic acid], the Ki on NDM-1 [1] is 10 to 100 nM; in data set [2], below 100 nM; in [3], below 100 nM; in data set [4], below 100 nM; at NDM-1 [5] it was 10 to 100 nM; at OXA-48, below 10 nM. At VIM-1, this compound had an IC50 below 1000 nM.

As for `C[C@]1(Cn2ccnn2)[C@H](C(=O)O)N2C(=O)C[C@H]2S1(=O)=O` [Tazobactam], the Ki in data set [3] is 100 to 1000 nM; in data set [6], above 1000 nM; in data set [4], 100 to 1000 nM.

For `NC(=O)CC1Cc2cccc(C(=O)O)c2OB1O` (stereo not drawn) [Compound 22, 3-(2-amino-2-oxoethyl)-2-hydroxy-3,4-dihydro-2H-benzo[e][1,2]oxaborinine-8-carboxylic acid], the Ki in data set [2], in data set [3], in data set [6] and in [4] was below 100 nM in each case.

For `O=C(O)[C@H]1/C(=C/CO)O[C@@H]2CC(=O)N21` [Clavulanic acid], the “Ki (CTX-M-14, NCF)” value in data set [7] is “X (key: X: Less than 0.1 μM; Y: 0.1 μM to 1 μM; Z: Greater than 1 μM)”. In addition, the Ki in [3], in data set [6] and in data set [4] was above 1000 nM throughout.

With `COc1ccc2c(c1C(=O)OCOC(=O)OC(C)C)OB(O)[C@@H](Sc1nncs1)C2` [Compound 122, isopropoxycarbonyloxymethyl (3R)-2-hydroxy-7-methoxy-3-(1,3,4-thiadiazol-2-ylsulfanyl)-3,4-dihydro-1,2-benzoxaborinine-8-carboxylate], in data set [8], the “Measured Initial Conc. in Serum” value is 37.7 µM, the “Conc. at t = 1 hr” value worked out at 26.6 µM and the “Conc. at t = 3 hr” value came to 39.0 µM. Also, in [9], the “Measured Initial Conc. in Serum” value was 44.3 µM, the “Conc. at t = 1 hr” value was 34.1 µM and the “Conc. at t = 3 hr” value stood at 47.1 µM.

In the case of `COc1ccc2c(c1C(=O)OCOC(=O)C(C)(C)C)OB(O)[C@@H](Sc1nncs1)C2` [Compound 125, 2,2-dimethylpropanoyloxymethyl (3R)-2-hydroxy-7-methoxy-3-(1,3,4-thiadiazol-2-ylsulfanyl)-3,4-dihydro-1,2-benzoxaborinine-8-carboxylate], in data set [8], the “Measured Initial Conc. in Serum” value came to 37.6 µM, the “Conc. at t = 1 hr” value came to 28.5 µM and the “Conc. at t = 3 hr” value turned out to be 48.2 µM. Moreover, in [9], the “Measured Initial Conc. in Serum” value was found to be 41.8 µM, the “Conc. at t = 1 hr” value was determined as 27.4 µM and the “Conc. at t = 3 hr” value worked out at 41.4 µM.

In the case of `O=C(O)c1cccc2c1OB(O)[C@@H](Sc1nccs1)C2` [Compound 11, (R)-2-hydroxy-3-(thiazol-2-ylthio)-3,4-dihydro-2H-benzo[e][1,2]oxaborinine-8-carboxylic acid], the Ki on NDM-1 [1] was above 100 nM; in data set [2], below 100 nM; in data set [3] it was below 100 nM; in [4] it was below 100 nM; on NDM-1 [5], above 100 nM. The compound also returned an IC50 on VIM-1 of at least 1000 nM.
